Columns and labels:
Mouse B16 melanoma cell [1] = assay: Quantification of the number of cells (alamarBlue), cell growth / cell toxicity; assay type: cell-based
Method: (§1) Mouse B16 melanoma cell was used. The cells were inoculated at 1×10^5 cells/well to a 6-well plate, and cultured with using a commercially available medium (trade name: EAGLE MEM, manufactured by Nissui Pharmaceutical Co., Ltd.) supplemented with 10% fetal bovine serum. The cells were cultured at 37° C., 5% CO2 and under completely saturated water-vapor atmosphere.
(§2) For determining the effect of hydroxyproline on cell growth and melanin content reduction, after culturing the cells for 24 hours, stock solutions of 4-trans-L-hydroxyproline, 4-trans-D-hydroxyproline, 4-cis-L-hydroxyproline or 4-cis-D-hydroxyproline were prepared and added in the same volume to the cells, further cultured for 3 days and used for the experiment. Meanwhile, as a control group, the same volume of water was added.
3 days after the addition of a solution of test compound, the medium was removed by suction. Eagle's-MEM containing the solution of 10% alamarBlue (trade name: BIOSOURCE, manufactured by Biosource International) was added and the reaction was allowed to occur at 37° C. Thirty minutes later, the fluorescence was measured with excitation wavelength of 544 nm and measurement wavelength of 590 nm. By having the obtained number as a relative value of the cell number, the ratio of number of cells (i.e. % number of cells) for a group added with the test compound compared to a group not added with the test compound (i.e. only the solvent was added) was calculated. Higher % number of cells indicates lower cell toxicity. When it is less than 80%, it was determined as “toxic.”
(§3) The equal amounts of 4-trans-L-hydroxyproline and 4-cis-D-hydroxyproline were mixed to produce the mixture solution of 4-trans-L-hydroxyproline and 4-cis-D-hydroxyproline, which was then provided for the experiments. Cell culture and quantification and evaluation of number of the cells and melanin were carried out in the same manner as the Examples above.
(§4) By using the mixture solution in which 4-trans-L-hydroxyproline and 4-cis-D-hydroxyproline were mixed at various ratio, test for determining cell growth and melanin content reduction was carried out. Cell culture and quantification and evaluation were carried out in the same manner as the Examples above.

Mouse B16 melanoma cell [2] = assay: Quantification of melanin (melanin content ratio, absorbance at 475 nm); assay type: cell-based; settings: for effect on reducing melanin content (conclusion): 3.33 ppm up to 2690 ppm
Method: as §1, §2
The medium was removed by suction. After washing three times with the buffer (phosphate buffer solution 50 mM, pH 6.8), the cells were lysed by addition of 1 N NaOH, and the absorbance was measured at 475 nm. By having the obtained value as a relative value of the melanin content, the ratio of melanin content (%) for a group added with the test compound compared to a group not added with the test compound (i.e. only the solvent was added) was calculated. Lower ratio of melanin content means the higher inhibition effect on melanin production.
By using the measured value of melanin content that was obtained according to the measurement method above, percentage ratio of the melanin content was calculated by dividing the melanin content in the cells added with 4-trans-L-hydroxyproline, 4-trans-D-hydroxyproline, 4-cis-L-hydroxyproline, or 4-cis-D-hydroxyproline by the melanin content in the cells for control experiment, and the resulting value was taken as a ratio of melanin content.
as §3, §4

[3] = tested on: Chinese hamster V79 cells; settings: cited from earlier work
[4] = FIG. 2, 100 ppm single compound, duplicate

Structure (SMILES) | number of cells when the control was represented as 100% (Mouse B16 melanoma cell [1]; FIG. 1, 3.33 ppm, 3 days) [%] | number of cells when the control was represented as 100% (Mouse B16 melanoma cell [1]; FIG. 1, 11.1 ppm, 3 days) [%] | number of cells when the control was represented as 100% (Mouse B16 melanoma cell [1]; FIG. 1, 33.3 ppm, 3 days) [%] | number of cells when the control was represented as 100% (Mouse B16 melanoma cell [1]; FIG. 1, 333 ppm, 3 days) [%] | concentration up to which the number of cells was not significantly different from the control (no effect on survival) (Mouse B16 melanoma cell [1]; FIG. 1, 3 days) | number of cells when the control was represented as 100% (Mouse B16 melanoma cell [1]; FIG. 3, 333 ppm, duplicate) [%] | effect on reducing melanin content (conclusion) (Mouse B16 melanoma cell [2]; FIG. 1) | melanin content ratio (Mouse B16 melanoma cell [2]; FIG. 1, 3.33 ppm, 3 days) [%] | melanin content ratio (Mouse B16 melanoma cell [2]; FIG. 1, 11.1 ppm, 3 days) [%] | melanin content ratio (Mouse B16 melanoma cell [2]; FIG. 1, 33.3 ppm, 3 days) [%] | melanin content ratio (Mouse B16 melanoma cell [2]; FIG. 1, 333 ppm, 3 days) [%] | melanin content ratio (Mouse B16 melanoma cell [2]; FIG. 2, 33.3 ppm, duplicate) [%] | melanin content ratio (Mouse B16 melanoma cell [2]; FIG. 2, 50 ppm, duplicate) [%] | melanin content ratio (Mouse B16 melanoma cell [2]; [4]) [%] | melanin content ratio (Mouse B16 melanoma cell [2]; FIG. 2, 333 ppm, duplicate) [%] | melanin content ratio (Mouse B16 melanoma cell [2]; FIG. 3, 333 ppm, duplicate) [%] | number of cells when the control was represented as 100% (Mouse B16 melanoma cell [1]; FIG. 2, 33.3 ppm, duplicate) [%] | number of cells when the control was represented as 100% (Mouse B16 melanoma cell [1]; FIG. 2, 50 ppm, duplicate) [%] | number of cells when the control was represented as 100% (Mouse B16 melanoma cell [1]; [4]) [%] | number of cells when the control was represented as 100% (Mouse B16 melanoma cell [1]; FIG. 2, 333 ppm, duplicate) [%] | also measured
O=C(O)[C@H]1C[C@@H](O)CN1 (stereo in doubt) [4-cis-D-hydroxyproline] | 97 | 98 | 101 | 92 | ≤ 333 ppm | 88 | effect on reducing melanin content in a concentration-dependent manner | 100 | 98 | 96 | 32 | 90 | 85 | 72 | 32 | 37 |  |  |  |  | number of cells when the control was represented as 100% (Mouse B16 melanoma cell [1]; FIG. 3, 33.3 ppm, duplicate): 93%; number of cells when the control was represented as 100% (Mouse B16 melanoma cell [1]; FIG. 3, 50 ppm, duplicate): 92%; number of cells when the control was represented as 100% (Mouse B16 melanoma cell [1]; FIG. 3, 100 ppm, duplicate): 91%; inhibition of melanin synthesis / melanin content (conclusion) (Mouse B16 melanoma cell [2]; FIG. 2, 4-cis-D starting from 33.3 ppm, mixture with same amount of 4-cis-D): prominently inhibit melanin synthesis in a concentration-dependent manner; melanin content ratio (Mouse B16 melanoma cell [2]; FIG. 3, 33.3 ppm, duplicate): 92%; melanin content ratio (Mouse B16 melanoma cell [2]; FIG. 3, 50 ppm, duplicate): 84%; melanin content ratio (Mouse B16 melanoma cell [2]; FIG. 3, 100 ppm, duplicate): 75%
O=C(O)[C@@H]1C[C@H](O)CN1 (stereo in doubt) [4-cis-L-hydroxyproline] | 93 | 92 | 84 |  | up to 33.3 ppm |  | effect on reducing melanin content in a concentration-dependent manner | 92 | 83 | 30 |  |  |  |  |  |  | 97 | 93 | 95 | 89 | 
O=C(O)[C@H]1C[C@H](O)CN1 (stereo in doubt) [4-trans-D-hydroxyproline] | 98 | 100 | 101 | 105 |  |  | no effect on reducing melanin content | 97 | 99 | 99 | 101 |  |  |  |  |  |  |  |  |  | number of cells when the control was represented as 100% (Mouse B16 melanoma cell [1]; FIG. 1, 2690 ppm, 3 days): 109%; melanin content ratio (Mouse B16 melanoma cell [2]; FIG. 1, 2690 ppm, 3 days): 110%
O=C(O)[C@@H]1C[C@@H](O)CN1 (stereo in doubt) [4-trans-L-hydroxyproline] | 95 | 103 | 99 | 101 |  | 100 | no effect on reducing melanin content | 103 | 108 | 105 | 104 | 103 | 104 | 108 | 112 | 103 | 95 | 100 | 98 | 102 | number of cells when the control was represented as 100% (Mouse B16 melanoma cell [1]; FIG. 1, 2690 ppm, 3 days): 94%; number of cells when the control was represented as 100% (Mouse B16 melanoma cell [1]; FIG. 3, 480 ppm, duplicate): 96%; number of cells when the control was represented as 100% (Mouse B16 melanoma cell [1]; FIG. 3, 666 ppm, duplicate): 102%; number of cells when the control was represented as 100% (Mouse B16 melanoma cell [1]; FIG. 3, 1332 ppm, duplicate): 99%; melanin content ratio (Mouse B16 melanoma cell [2]; FIG. 1, 2690 ppm, 3 days): 107%; melanin content ratio (Mouse B16 melanoma cell [2]; FIG. 3, 480 ppm, duplicate): 99%; melanin content ratio (Mouse B16 melanoma cell [2]; FIG. 3, 666 ppm, duplicate): 107%; melanin content ratio (Mouse B16 melanoma cell [2]; FIG. 3, 1332 ppm, duplicate): 102%
Oc1ccc(O)cc1 [Hydroquinone, hydroquinone] |  |  |  |  |  |  |  |  |  |  |  |  |  |  |  |  |  |  |  |  | mutagenic activity [3]: mutagenic activity

From patent US20120122951A1 (priority 2009, published 2012)
